Data on 18 compounds can be found in patent publication US20240166627A1, “Terpyridinedione compound or salt thereof, and preparation method and application thereof” (SHENZHEN SALUBRIS PHARMACEUTICALS CO., LTD., priority 2021, published 2024).

pIC50: −log10 of the molar value.

The test system of this assay is production of TNFα in U937. Briefly: Releasing TNFα from U937 induced by LPS. Format: cell-based. Conditions: Homo sapiens, U-937; PMA-differentiated U937, LPS 100 ng/ml, 4 h; read-out: IC50 value that the compound inhibits the production of TNFα. The source says:
Cytokine regulation in human monocytes has shown that the p38 pathway is the key to the biosynthesis of a plurality of pro-inflammatory cytokines including TNFα, IL-1β and IL-6. Therefore, the inhibition of the p38 MAPK pathway is to reduce inflammatory response by reducing the biosynthesis of the pro-inflammatory cytokines. […] This is a reflection of the effect of the compound in the present invention to facilitate reduction of inflammation, which is useful in the treatment of various diseases, including chronic inflammatory diseases, acute inflammatory diseases, or self-inflammatory diseases. The potency and efficacy of the p38 inhibitor in blocking cytokine production are evaluated using a human U937 cell line.
A 1640 medium with an article number being A10491-01, Gibco; penicillin-streptomycin with an article number being 15140-122, Gibco; fetal bovine serum with an article number being 10099-141C, Gibco; PBS with an article number being 10010-031, Gibco; LPS with an article number being L2880, Sigma; PMA with an article number being P1585, Sigma; dimethyl sulfoxide with an article number being D8418-1L, Sigma; and a TNFα kit with an article number being K151QWD-4, MSD.
A 96-well plate with an article number being 3599, Corning; a plate-vibrating device with an article number being QB-9002, QILINBEIER; a centrifuge with an article number being 5810R, Eppendorf; a carbon dioxide incubator with an article number being 371, Thermo; a counter with an article number being C10281, Gibco; a microscope with an article number being CKX41, OLYMPUS; and an MSD plate reader with an article number being 1201 MESO SECTOR 600, MSD.
U937, ATCC with an article number being CRL-1593.2.
About 2 mg of a drug is weighted; a mother solution is prepared to 10 mM (which is calculated by free alkali) by means of DMSO; and the mother solution is diluted 10-fold to 1 mM, and then is successively diluted 4-fold to 250 μM, 62.5 μM, 15.6 μM, 3.9 μM, 0.97 μM, 0.24 μM, and 0.061 μM. The above series of diluted DMSO drugs is diluted 20-fold as working solutions by using media.
At Day 0, 10000/well inoculation is performed, stimulation is performed for 48 h with 20 ng/ml of PMA, and culture is performed at 37° C., 5% CO2. • At Day 2, 1. Supernatant is removed from differentiated U937, cleaning is performed once with PBS, and 96 μl of the 1640 medium is added. • 2. 2 μl of the compound containing (DMSO with a final concentration being 0.1%), and culture is performed for 30 min at 37° C., 5% CO2. • 3. 2 μl of LPS (a final concentration being 100 ng/ml) is added, cells are stimulated, and culture is performed for 4 h at 37° C., 5% CO2. • 4. Centrifugation is performed, supernatant is taken, and content of TNFα in the supernatant is determined through ELISA.
The content of TNFα corresponding to each well is calculated by using a standard curve in the kit.
The compound IC50 is calculated by using a GraphPad nonlinear fitting formula, and for an experimental result, refer to Table 1.
In general, pIC50 refers to the negative decadic logarithm of the IC50, by convention in mol/L. Consider `Cc1cnc(-n2cccc(C(C)(C)O)c2=O)cc1-n1c(C)cc(OCc2ccc(F)cc2F)c(Cl)c1=O` [Embodiment 4, 3″-chloro-4″-((2,4-difluorobenzyl)oxy)-3-(2-hydroxypropane-2-yl)-5′,6″-dimethyl-2H,2″H-[1,2′:4′,1″-terpyridine]-2,2″-diketone], for which the pIC50 was 8.69.

`Cc1cnc(-n2cccc(C(C)(C)O)c2=O)cc1-n1c(C)cc(OCc2ncc(Cl)cc2F)c(Cl)c1=O` [Embodiment 5, 3″-chloro-4″-((3-fluoro-5-chloropyridine-2-yl)methoxy)-3-(2-hydroxypropane-2-yl)-5′,6″-dimethyl-2H,2″H-[1,2′:4′,1″-terpyridine]-2,2″-diketone]: the pIC50 was 8.39.

With `Cc1cnc(-n2cccc(C(C)(C)O)c2=O)cc1-n1c(C)cc(OCc2ccc(C#N)cc2F)c(Cl)c1=O` [Embodiment 8, 4-(((3″-chloro-3-(2-hydroxypropane-2-yl)-5′,6″-dimethyl-2,2″-dioxo-2H,2″H-[1,2 2′:4′,1″-terpyridine]-4″-yl)oxy)methyl)-3-fluorobenzonitrile], the pIC50 is 7.84.

For `Cc1cnc(-n2cccc(C(C)(C)O)c2=O)cc1-n1c(C)cc(OCc2ccc(Cl)cc2F)c(Cl)c1=O` [Embodiment 9, 3″-chloro-4″-((4-chloro-2-fluorobenzyl)oxy)-3-(2-hydroxypropane-2-yl)-5′,6″-dimethyl-2H,2″H-[1,2′:4′,1″-terpyridine]-2,2″-diketone], the pIC50 is 8.57.

For `Cc1cnc(-n2cccc(C(C)(C)O)c2=O)cc1-n1c(C)cc(OCc2ncccc2C)c(Cl)c1=O` [Embodiment 12, 3″-chloro-4″-((3-methylpyridin-2-yl)methoxy)-3-(2-hydroxypropane-2-yl)-5′,6″-dimethyl-2H,2″H-[1,2′:4′,1″-terpyridine]-2,2″-diketone], the pIC50 is 8.29.

On to `Cc1cnc(-n2cccc(C(C)(C)O)c2=O)cc1-n1c(C)cc(OCc2c(F)cccc2C#N)c(Cl)c1=O` [Embodiment 13, 2-(((3″-chloro-3-(2-hydroxypropane-2-yl)-5′,6″-dimethyl-2,2″-dione-2H,2″H-[1,2′:4′,1″-terpyridine]-4″-yl)oxy)methyl)-3-fluorobenzonitrile], for which the pIC50 is 8.37.

As for `Cc1cnc(-n2cccc(C(C)(C)O)c2=O)cc1-n1c(C)cc(OCc2ccc(Cl)cn2)c(Cl)c1=O` [Embodiment 14, 3″-chloro-4″-((5-chloropyridine-2-yl)methoxy)-3-(2-hydroxypropane-2-yl)-5′,6″-dimethyl-2H,2″H-[1,2′:4′,1″-terpyridine]-2,2″-diketone], the pIC50 is 8.09.

In the case of `Cc1cnc(-n2cccc(C(C)(C)O)c2=O)cc1-n1c(C)cc(OCc2c(F)cccc2F)c(Cl)c1=O` [Embodiment 15, 3″-chloro-4″-((2,6-difluorophenyl)methoxy)-3-(2-hydroxypropane-2-yl)-5′,6″-dimethyl-2H,2″H-[1,2′:4′,1″-terpyridine]-2,2″-diketone], the pIC50 is 8.80.

`Cc1cnc(-n2cccc(C(C)(C)O)c2=O)cc1-n1c(C)cc(OCc2cc(F)ccc2F)c(Cl)c1=O` [Embodiment 18, 3″-chloro-4″-((2,5-difluorobenzyl)oxy)-3-(2-hydroxypropane-2-yl)-5′,6″-dimethyl-2H,2″H-[1,2′:4′,1″-terpyridine]-2,2″-diketone]: the negative logarithm of the IC50 (pIC50) is 8.62.

In the case of `Cc1cnc(-n2cccc(C(C)(C)O)c2=O)cc1-n1c(C)cc(OCc2ncccc2Cl)c(Cl)c1=O` [Embodiment 19, 3″-chloro-4″-((3-chloropyridine-2-yl)methoxy)-3-(2-hydroxypropane-2-yl)-5′,6″-dimethyl-2H,2″H-[1,2′:4′,1″-terpyridine]-2,2″-diketone], the pIC50 is 8.09.

For the compound `Cc1cnc(-n2cccc(C(C)(C)O)c2=O)cc1-n1c(C)cc(OCc2ccc(F)cn2)c(Cl)c1=O` [Embodiment 21, 3″-chloro-4″-((5-fluoropyridine-2-yl)methoxy)-3-(2-hydroxypropane-2-yl)-5′,6″-dimethyl-2H,2″H-[1,2′:4′,1″-terpyridine]-2,2″-diketone], the pIC50 was 8.15.

For `Cc1cnc(-n2cccc(C(C)(C)O)c2=O)cc1-n1c(C)cc(OCc2ccc(F)c(F)c2)c(Cl)c1=O` [Embodiment 23, 3″-chloro-4″-((3,4-difluorobenzyl)oxy)-3-(2-hydroxypropane-2-yl)-5′,6″-dimethyl-2H,2″H-[1,2′:4′,1″-terpyridine]-2,2″-diketone], the pIC50 was 8.26.

For `Cc1cnc(-n2cccc(C(C)O)c2=O)cc1-n1c(C)cc(OCc2ncc(F)cc2F)c(Cl)c1=O` (stereo not drawn) [Embodiment 24, 3″-chloro-4″-((3,5-difluoropyridine-2-yl)methoxy)-3-(1-hydroxyethyl)-5′,6″-dimethyl-2H,2″H-[1,2′:4 1″-terpyridine]-2,2″-diketone], the pIC50 is 7.95.

With `Cc1cnc(-n2cccc(C(C)(C)O)c2=O)cc1-n1c(C)cc(OCc2ncc(F)cc2Cl)c(Cl)c1=O` [Embodiment 25, 3″-chloro-4″-((3-chloro-5-fluoropyridine-2-yl)methoxy)-3-(2-hydroxypropane-2-yl)-5′,6″-dimethyl-2H,2″H-[1,2′:4′,1″-terpyridine]-2,2″-diketone], the pIC50 was 8.22.

`Cc1cnc(-n2cccc(C(C)(C)O)c2=O)cc1-n1c(C)cc(OCc2ncc(C3CC3)cc2F)c(Cl)c1=O` [Embodiment 27, 3″-chloro-4″-((3-fluoro-5-cyclopropylpyridine-2-yl)methoxy)-3-(2-hydroxypropane-2-yl)-5′,6″-dimethyl-2H,2″H-[1,2′:4′,1″-terpyridine]-2,2″-diketone]: the pIC50 was 7.78.

For `Cc1cnc(-n2ccc(C)c(C(C)(C)O)c2=O)cc1-n1c(C)cc(OCc2ncc(F)cc2F)c(Cl)c1=O` [Embodiment 29, 3″-chloro-4″-((3,5-difluoropyridine-2-yl)methoxy)-3-(2-hydroxypropane-2-yl)-4,5′,6″-trimethyl-2H, 2″H-[1,2′:4′,1″-terpyridine]-2,2″-diketone], the pIC50 was 7.82.

`Cc1cnc(-n2cccc(C(C)(C)O)c2=O)cc1-n1c(C)cc(OCc2cccnc2)c(Cl)c1=O` [Embodiment 30, 3″-chloro-3-(2-hydroxypropane-2-yl)-5′,6″-dimethyl-4″-((pyridin-3-yl)methoxy)-2H,2″H-[1,2′:4′,1″-terpyridine]-2,2″-diketone]: the pIC50 is 7.93.

With `Cc1cc(C(C)(C)O)c(=O)n(-c2cc(-n3c(C)cc(OCc4ncc(F)cc4F)c(Cl)c3=O)c(C)cn2)c1` [Embodiment 35, 3″-chloro-4″-((3,5-difluoropyridine-2-yl)methoxy)-3-(2-hydroxypropane-2-yl)-5,5′,6″-trimethyl-2H, 2″H-[1,2′:4′,1″-terpyridine]-2,2″-diketone], the pIC50 is 7.61.
